Measured values published in US11866720B2, “Transgenic or non-transgenic plants with mutated protoporphyrinogen oxidase having increased tolerance to herbicides” (priority 2013, dated 2024).
Values joined by “and” are separate entries in the source; they are usually repeats but may differ in a detail not shown here. Identical values can stand only once.

How the values were obtained:
[1] = tested on: transgenic soybean expressing mutated PPO; assay: Soybean T0 cuttings, greenhouse spray test (injury score 0-9, 1 week after treatment); format: in vivo, Glycine max; details: soybean T0 cuttings, 1 week after treatment
Excerpt: For testing of T0 plants, cuttings can be used. In the case of soybean plants, an optimal shoot for cutting is about 7.5 to 10 cm tall, with at least two nodes present. Each cutting is taken from the original transformant (mother plant) and dipped into rooting hormone powder (indole-3-butyric acid, IBA). The cutting is then placed in oasis wedges inside a bio-dome. Wild type cuttings are also taken simultaneously to serve as controls. The cuttings are kept in the bio-dome for 5-7 days and then transplanted to pots and then acclimated in the growth chamber for two more days. Subsequently, the cuttings are transferred to the greenhouse, acclimated for approximately 4 days, and then subjected to spray tests as indicated. Depending on the species, the plants are kept at 10-25° C. or 20-35° C. The test period extends over 3 weeks. During this time, the plants are tended and their response to the individual treatments is evaluated. Herbicide injury evaluations are taken at 2 and 3 weeks after treatment. Plant injury is rated on a scale of 0% to 100%, 0% being no injury and 100% being complete death.
Soybean cv Jake was transformed as previously described by Siminszky et al., Phytochem Rev. 5:445-458 (2006). After regeneration, transformants were transplanted to soil in small pots, placed in growth chambers (16 hr day/8 hr night; 25° C. day/23° C. night; 65% relative humidity; 130-150 microE m-2 s-1) and subsequently tested for the presence of the T-DNA via Taqman analysis. After a few weeks, healthy, transgenic positive, single copy events were transplanted to larger pots and allowed to grow in the growth chamber. An optimal shoot for cutting was about 3-4 inches tall, with at least two nodes present. Each cutting was taken from the original transformant (mother plant) and dipped into rooting hormone powder (indole-3-butyric acid, IBA). The cutting was then placed in oasis wedges inside a bio-dome. The mother plant was taken to maturity in the greenhouse and harvested for seed. Wild type cuttings were also taken simultaneously to serve as negative controls. The cuttings were kept in the bio-dome for 5-7 days and then transplanted to 3 inch pots and then acclimated in the growth chamber for two more days. […] Herbicide injury evaluations were taken at 2, 7, 14 and 21 days after treatment. Results are shown in Tables 11a-11i, and FIGS. 5, 6, and 7.
The following gives a definition of the injury scores measured above: […]

[2] = tested on: transgenic soybean expressing mutated PPO; assay: Soybean segregating T1 individuals, greenhouse spray test (injury 0-9); format: in vivo, Glycine max; details: benzoxazin 100 g ai/ha, 1 week after treatment
[3] = tested on: transgenic Arabidopsis thaliana plants expressing wildtype or mutated PPO; assay: Germination / growth inhibition assay of transgenic Arabidopsis T2 seeds in 48-well plates; details: growth inhibition seven to ten days after seeding

C#CCN1C(=O)C(F)(F)Oc2cc(F)c(-n3c(=O)n(C)c(=S)n(C)c3=O)cc21
Injury score from 0-9 ([1]; AmtuPPX2L_F420M (8 events), benzoxazin 50 + 1% MSO): 2 | Injury score from 0-9 ([1]; AmtuPPX2L_R128A_F420I (9 events), benzoxazin 25 + 1% MSO): 2 | Injury score from 0-9 ([1]; AmtuPPX2L_R128A_F420I (9 events), benzoxazin 50 + 1% MSO): 2 | Injury score from 0-9 ([1]; AmtuPPX2L_R128A_F420I (9 events), benzoxazin 75 + 1% MSO): 3 | Injury score from 0-9 ([1]; AmtuPPX2L_R128A_F420L (6 events), benzoxazin 25 + 1% MSO): 0 | Injury score from 0-9 ([1]; AmtuPPX2L_R128A_F420M (7 events), benzoxazin 25 + 1% MSO): 3 | Injury score from 0-9 ([1]; AmtuPPX2L_R128A_F420M (7 events), benzoxazin 50 + 1% MSO): 3 | Injury score from 0-9 ([1]; AmtuPPX2L_R128A_F420M (7 events), benzoxazin 75 + 1% MSO): 4 | Injury score from 0-9 ([1]; AmtuPPX2L_R128A_F420V (14 events), benzoxazin 25 + 1% MSO): 2 | Injury score from 0-9 ([1]; AmtuPPX2L_R128A_F420V (14 events), benzoxazin 50 + 1% MSO): 2 | Injury score from 0-9 ([1]; AmtuPPX2L_R128A_F420V (14 events), benzoxazin 75 + 1% MSO): 3 | Injury score from 0-9 ([1]; AmtuPPX2L_dG210 (13 events), benzoxazin 25 + 1% MSO): 1 | Injury score from 0-9 ([1]; AmtuPPX2L_dG210 (13 events), benzoxazin 50 + 1% MSO): 3 | Injury score from 0-9 ([1]; AmtuPPX2L_dG210_R128L (12 events), benzoxazin 25 + 1% MSO): 2 | Injury score from 0-9 ([1]; AmtuPPX2L_dG210_R128L (12 events), benzoxazin 50 + 1% MSO): 3 | Injury score from 0-9 ([1]; NitabPPX2 (13 events), benzoxazin 12.5 + 1% MSO): 6 | Injury score from 0-9 ([1]; NitabPPX2 (13 events), benzoxazin 25 + 1% MSO): 6 | Injury score from 0-9 ([1]; NitabPPX2_R98A_F392V (9 events), benzoxazin 25 + 1% MSO): 0 | Injury score from 0-9 ([1]; NitabPPX2_R98A_F392V (9 events), benzoxazin 50 + 1% MSO): 0 | Injury score from 0-9 ([1]; wild type Jake variety, benzoxazin 12.5 + 1% MSO): 7 | Injury score from 0-9 ([1]; wild type Jake variety, benzoxazin 25 + 1% MSO): 8 | Injury score from 0-9 ([1]; wild type Jake variety, benzoxazin 50 + 1% MSO): 9 | Injury score from 0-9 ([1]; wild type Jake variety, benzoxazin 75 + 1% MSO): 9 | injury (0-9 point scale) ([2]; SDS10791 AmtuPPX2L R128A_F420I): 3 (2×) and 2 and 4 (3×) and 9 and 5 | injury (0-9 point scale) ([2]; SDS-10642 AmtuPPX2L R128A_F420L): 6 and 5 (5×) and 9 and 4 | injury (0-9 point scale) ([2]; SDS-10648 AmtuPPX2L R128A_F420I): 4 (3×) and 9 and 5 (4×) | injury (0-9 point scale) ([2]; SDS-10652 AmtuPPX2L L397D_F420V): 9 (2×) and 4 (6×) | injury (0-9 point scale) ([2]; SDS-10787 AmtuPPX2L R128A_F420L): 4 and 5 (3×) and 9 (2×) and 6 (2×) | injury (0-9 point scale) ([2]; SDS-10985 AmtuPPX2L R128A_F420M): 9 (5×) and 6 (3×) | injury (0-9 point scale) ([2]; SDS-10990 AmtuPPX2L R128A_F420M): 9 (3×) and 7 (2×) and 6 (3×) | injury (0-9 point scale) ([2]; SDS-11034 AmtuPPX2L R128A_F420V): 4 (3×) and 3 (3×) and 2 (2×) | injury (0-9 point scale) ([2]; wild type): 9 (7×) and 8 | Relative tolerance rate as compared to a non-transgenic Arabidopsis plant (non-transgenic = 1.0) ([3]; transgenic Arabidopsis AMATU_PPO2_F420I): 367 | Relative tolerance rate as compared to a non-transgenic Arabidopsis plant (non-transgenic = 1.0) ([3]; transgenic Arabidopsis AMATU_PPO2_F420L): 253 | Relative tolerance rate as compared to a non-transgenic Arabidopsis plant (non-transgenic = 1.0) ([3]; transgenic Arabidopsis AMATU_PPO2_F420M): 102 | Relative tolerance rate as compared to a non-transgenic Arabidopsis plant (non-transgenic = 1.0) ([3]; transgenic Arabidopsis AMATU_PPO2_R128A_F420I): 333 | Relative tolerance rate as compared to a non-transgenic Arabidopsis plant (non-transgenic = 1.0) ([3]; transgenic Arabidopsis AMATU_PPO2_R128A_F420L): 333 | Relative tolerance rate as compared to a non-transgenic Arabidopsis plant (non-transgenic = 1.0) ([3]; transgenic Arabidopsis AMATU_PPO2_R128A_F420M): 204 | Relative tolerance rate as compared to a non-transgenic Arabidopsis plant (non-transgenic = 1.0) ([3]; transgenic Arabidopsis AMATU_PPO2_R128L): 23 | Relative tolerance rate as compared to a non-transgenic Arabidopsis plant (non-transgenic = 1.0) ([3]; transgenic Arabidopsis AMATU_PPO2_dG210): 33 | Relative tolerance rate as compared to a non-transgenic Arabidopsis plant (non-transgenic = 1.0) ([3]; transgenic Arabidopsis AMATU_PPO2_dG210_R128L): 153 | Relative tolerance rate as compared to a non-transgenic Arabidopsis plant (non-transgenic = 1.0) ([3]; transgenic Arabidopsis AMATU_PPO2_wt): 13
